# Values joined by “and” are separate entries in the source; they are usually repeats but may differ in a detail not shown here. Identical values can stand only once. “Also recorded” adds a separate entry of the source. Like-named read-outs stand apart in the source and are kept apart here.
# Assays:
# Siglec-8-Ig [1] = target: T1, Siglec-8-Ig (Homo sapiens, UniProt Q9NYZ4); experiment: Siglec-8-Ig binding affinity by surface plasmon resonance (SPR), biotinylated glycosides on streptavidin sensor chip; details: for Siglec-8-Ig binding by SPR (in words): LacNAc reference surface; for Siglec-8-Ig binding by SPR (in words) / Kd: SPR; for Kd: 25° C., equilibrium binding, Siglec-8-Ig 0.1-18 uM, read-out: dissociation constant (Kd) of Siglec-8-Ig binding
# T1 construct: The extracellular domain of Siglec-8 was inserted in frame with a Factor Xa cleavage site and the Fc portion of human IgG1; made in house; host or cells: CHOEA1 cells (electroporated), purified from supernatants on Protein A Sepharose
# Procedure: (§1) The extracellular domain of Siglec-8 was inserted in frame with a Factor Xa cleavage site and the Fc portion of human IgG1, expanded in electroporated CHOEA1 cells, and then purified from supernatants (final concentration: 2.4 mg/ml) using Protein A Sepharose as previously described (Kikly, K. K., Bochner, B. S., Freeman, S., Tan, K. B., Gallagher, K. T., D'Alessio, K., Holmes, S. D., Abrahamson, J., Hopson, C. B., Fischer, E. I., Erickson-Miller, C. L., Tachimoto, H., Schleimer, R. P., and White, J. R. (2000) J. Allergy Clin. Immunol. 105, 1093-1100).
# All SPR experiments were performed at 25° C. on a Biacore 3000 instrument (Biacore Inc., Piscataway, N.J.). Biotinylated glycosides were captured on research grade streptavidin (SA) coated sensor chips (Sensor Chip SA, Biacore) that were pre-treated according to the manufacturer's instructions. A solution of each biotinylated glycoside (10 fmol/μl) was injected at 2 μl/min in PBS (pH 7.4) containing 0.005% Tween-20 (running buffer) for varying lengths of time (3-7 minutes) until an optimal amount of glycan was captured on each independent surface. Three related glycosides were studied using one SA sensor chip. […] Increasing concentrations of Siglec-8-Ig (0.1-18 uM) were injected at a flow rate of 60 μl/min over all four surfaces of the sensor chip. […] The equilibrium binding data of Siglec-8-Ig were analyzed by non-linear curve fitting using the BIAevaluation software (Biacore Inc.).
# The binding affinities of Siglec-8 for #108, #182 and #181 (FIGS. 3A-C, respectively) were determined on a Biacore B3000 instrument using a streptavidin-coated sensor chip. LacNAc glycoside was captured on one surface of the sensor chip and used as negative control (data not shown).
# [2] = target: T2, Siglec-8-Ig fusion protein (Homo sapiens, UniProt Q9NYZ4); experiment: Glycan array screening: Siglec-8-Ig binding to biotinylated glycosides on streptavidin-coated 384-well plates; details: 172 structures screened
# T2 construct: The extracellular domain of Siglec-8 was inserted in frame with a Factor Xa cleavage site and the Fc portion of human IgG1; made in house; host or cells: CHOEA1 cells (electroporated), purified from supernatants on Protein A Sepharose
# Procedure: as §1
# Biotinylated glycosides (Korchagina, E., and Bovina, N. V. (1992) Bioorg Khim 18, 283-298) were coated in replicates of n=3 or n=4 on streptavidin-coated microtiter plates (Pierce Reacti-Bind™ NeutrAvidin™ Coated High Binding Capacity Black 384-Well Plates, Product #15513, Rockford, Ill.). Each well was incubated overnight at 4° C. with 30 pmol/well of glycoside in 25 ul phosphate buffered saline (PBS), pH 7.4. The plates were washed three times with 100 ul PBS using an automated plate washer (Molecular Devices, Sunnyvale, Calif.) and stored sealed at 4° C. in 25 ul/well PBS with 0.1% azide until use. Prior to assay, the plates were washed three times with 100 ul/well wash buffer (20 mM Tris-HCl pH 7.4, 150 mM NaCl, 2 mM CaCl2, 2 mM MgCl2 and 0.05% Tween 20). A stock solution of Siglec-8-Ig (30 ug/ml) was added to each well in 25 ul binding buffer (wash buffer plus 1% BSA) and incubated at room temperature for one hour. The plates were washed three times with 100 ul/well wash buffer and incubated for one hour with 25 ul/well goat anti-human IgG-Alexa 488 (Molecular Probes, Cat. No. A11013, Eugene, Oreg.) at 5 ug/ml in binding buffer. The plates were washed and read in 25 ul wash buffer on a Victor 2™ 1420 Multilabel Counter (PerkinElmer Life Sciences, Fremont, Calif.) at excitation 485/emission 535. The current version of the Consortium glycan array can be viewed at:
# (http://www.functionalglycomics.org/static/consortium/resources/resourcecoreh.shtml), experiments were initiated to identify compounds that selectively and specifically bind to Siglec-8. Using Siglec-8-Ig fusion protein, a panel of 172 carbohydrate-based structures (see Table 1) was screened for specific Siglec-8 binding. […] The spacer arm itself, —O(CH2)3NH—CO(CH2)5NH-Biotin, found on many of the other non-binding structures, cannot explain the binding activity for Siglec-8.
# Siglec-8-Ig [3] = target: T1, Siglec-8-Ig; experiment: Binding of Siglec-8-Ig to aminoalkyl glycosides immobilized on activated (N-hydroxysuccinimidyl) glass surfaces; details: highest concentration tested 300 pmol/spot
# From the text: A description of the printing and evaluation of the full array in this format has been submitted elsewhere (Ola Blixt, Steve Head, Tony Mondala, Christopher Scanlan, Margaret E. Huflejt, Richard Alvarez, Marian C. Bryan, Fabio Fazio, Daniel Calarese, James Stevens, Nahid Razi, David J. Stevens, John J. Skehel, Irma van Die, Dennis Burton, Ian A. Wilson, Richard Cummings, Nicolai Bovin, Chi-Huey Wong, and James C. Paulson ([…]) Proc. Natl. Acad. Sci. USA 101, 17033-17038). FITC-labeled goat anti-human IgG (Fc specific) was from Jackson Immunoresearch (West Grove, Pa.). […]
# A solution of 100 μg/ml Siglec-8-Ig and 50 μg/ml FITC-labeled goat anti-human IgG (Fc-specific) in Dulbecco's PBS containing 0.005% Tween 20 was incubated for 30 min at 37° C. to allow complexes to form. […] An image of the bound fluorescence was obtaining using a microarray scanner (ScanArray Express, PerkinElmer Life Sciences, Boston, Mass.). The integrated spot intensities were determined using Metamorph software (Universal Imaging, Downingtown, Pa.). […]
# [4] = tested on: Siglec-G-Ig fusion protein; details: Consortium website; cited from earlier work
# Siglec-F = target: T3, Siglec-F (Mus musculus, UniProt Q920G3); details: Consortium website; cited from earlier work
# T3 sequence (Q920G3 17-569): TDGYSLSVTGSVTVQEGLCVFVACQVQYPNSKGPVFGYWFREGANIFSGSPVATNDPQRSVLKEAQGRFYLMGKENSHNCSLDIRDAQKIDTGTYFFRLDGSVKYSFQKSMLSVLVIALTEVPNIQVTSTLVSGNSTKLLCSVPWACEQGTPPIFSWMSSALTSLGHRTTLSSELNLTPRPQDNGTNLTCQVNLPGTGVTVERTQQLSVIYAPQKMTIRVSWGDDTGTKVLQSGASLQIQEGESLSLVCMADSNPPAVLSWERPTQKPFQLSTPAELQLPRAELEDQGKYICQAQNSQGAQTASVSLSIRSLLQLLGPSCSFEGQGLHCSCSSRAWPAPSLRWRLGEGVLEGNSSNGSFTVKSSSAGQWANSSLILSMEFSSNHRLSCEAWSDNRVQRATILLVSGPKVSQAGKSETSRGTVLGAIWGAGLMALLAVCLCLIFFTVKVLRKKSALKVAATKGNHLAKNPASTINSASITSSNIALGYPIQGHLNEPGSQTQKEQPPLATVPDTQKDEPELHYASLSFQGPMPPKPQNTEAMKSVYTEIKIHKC
# T2 sequence (Q9NYZ4 17-363 limits assumed): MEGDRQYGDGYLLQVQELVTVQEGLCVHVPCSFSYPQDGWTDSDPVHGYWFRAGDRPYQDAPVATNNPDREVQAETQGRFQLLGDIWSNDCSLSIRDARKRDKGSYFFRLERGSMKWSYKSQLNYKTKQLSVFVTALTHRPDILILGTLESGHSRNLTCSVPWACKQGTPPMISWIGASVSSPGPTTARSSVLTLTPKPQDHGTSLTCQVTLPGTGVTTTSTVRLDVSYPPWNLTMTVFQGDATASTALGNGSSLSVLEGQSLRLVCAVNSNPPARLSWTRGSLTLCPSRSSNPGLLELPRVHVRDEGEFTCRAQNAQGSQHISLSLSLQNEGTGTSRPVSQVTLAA
# T1 sequence (Q9NYZ4 17-363 limits assumed): as above
compound,measurement,setting,value
"Galβ1-4GlcNAc [LacNAc, reference compound]",Siglec-8-Ig binding by SPR (in words),Siglec-8-Ig [1],non-binding
"CC(=O)N[C@H]1[C@H](OCCNC(=O)CCCCCNC(=O)CCCCCNC(=O)CCCC[C@@H]2SC[C@@H]3NC(=O)N[C@@H]32)O[C@H](CO)[C@@H](O[C@@H]2O[C@H](CO)[C@H](O)[C@H](O[C@]3(C(=O)O)C[C@H](O)[C@@H](NC(C)=O)[C@H]([C@H](O)[C@H](O)CO)O3)[C@H]2O)[C@@H]1O[C@@H]1O[C@@H](C)[C@@H](O)[C@@H](O)[C@@H]1O [#108, NeuAcα2-3Galβ1-4(Fucα1-3)GlcNAcβ1-O(CH2)2NHCO(CH2)5NHCO(CH2)5NH-Biotin]",Siglec-8-Ig binding in glycan array (in words),[2]; listed as sLe^x,failed to bind
same,Siglec-8-Ig binding by SPR (in words),Siglec-8-Ig [1]; listed as sLe^x,failed to support detectable Siglec-8 binding; also recorded: No binding
same,Siglec-8 binding to glycan immobilized on glass slide (in words),Siglec-8-Ig [3],did not support any Siglec-8 binding
"CC(=O)N[C@H]1[C@H](OCCCNC(=O)CCCCCNC(=O)CCCC[C@@H]2SC[C@@H]3NC(=O)N[C@@H]32)O[C@H](COS(=O)(=O)O)[C@@H](O[C@@H]2O[C@H](CO)[C@H](O)[C@H](O[C@]3(C(=O)O)C[C@H](O)[C@@H](NC(C)=O)[C@H]([C@H](O)[C@H](O)CO)O3)[C@H]2O)[C@@H]1O[C@@H]1O[C@@H](C)[C@@H](O)[C@@H](O)[C@@H]1O [#182, NeuAcα2-3Galβ1-4(Fucα1-3)(6-O-Su)GlcNAcβ1-O(CH2)3NH—CO(CH2)5NH-Biotin]",Siglec-8-Ig binding in glycan array (in words),[2]; listed as 6-sulfo-sLe^x,failed to bind
same,Siglec-8-Ig binding by SPR (in words),Siglec-8-Ig [1]; listed as 6-sulfo-sLe^x,failed to support detectable Siglec-8 binding; also recorded: No binding
same,Siglec-8 binding to glycan immobilized on glass slide (in words),Siglec-8-Ig [3],did not support any Siglec-8 binding
"CC(=O)N[C@H]1[C@H](OCCCNC(=O)CCCCCNC(=O)CCCC[C@@H]2SC[C@@H]3NC(=O)N[C@@H]32)O[C@H](CO)[C@@H](O[C@@H]2O[C@H](COS(=O)(=O)O)[C@H](O)[C@H](O[C@]3(C(=O)O)C[C@H](O)[C@@H](NC(C)=O)[C@H]([C@H](O)[C@H](O)CO)O3)[C@H]2O)[C@@H]1O[C@@H]1O[C@@H](C)[C@@H](O)[C@@H](O)[C@@H]1O [#181, NeuAcα2-3(6-O-sulfo)Galβ1-4(Fucα1-3)GlcNAcβ1-O(CH2)3NH—CO(CH2)5NH-Biotin]",binding to Siglec-G-Ig fusion protein (in words),[4],failed to show specific binding
same,Siglec-8-Ig binding in glycan array (in words),[2],stands out among all the others for binding activity; also recorded: By far the greatest binding
same,Siglec-8-Ig binding in glycan array (in words),[2]; listed as 6′-sulfo-sLe^x,avid binding
same,binding to Siglec-F (in words),Siglec-F,selectively binds
same,association and dissociation profiles (in words),Siglec-8-Ig [1]; SPR sensorgrams,very fast association and dissociation profiles
same,Kd,Siglec-8-Ig [1]; listed as 6′-sulfo-sLe^x,2.3 µM and 2.2 to 2.3 µM
same,Kd,Siglec-8-Ig [1],2 to 2.5 µM
same,Siglec-8-Ig binding by SPR (in words),Siglec-8-Ig [1],specific binding
same,Siglec-8-Ig binding by SPR (in words),Siglec-8-Ig [1]; listed as 6′-sulfo-sLe^x,significant binding; also recorded: reproducible binding
